Data on nine molecules can be found in PubChem BioAssay (NCI).

Assay in all cases: inhibition of tumour cell growth, NCI panel, 48 h
In assay [1] the test system is UACC-257 melanoma.
Assay [2] concerns HL-60(TB) leukemia.
Assay [3] concerns CCRF-CEM leukemia.
The test system of assay [4] is IGROV1 ovarian.
The subject of assay [5] is MDA-MB-231 breast.
Assay [6] relates to SNB-19 CNS.
For assay [7], the system named is CAKI-1 renal.
The subject of assay [8] is SK-OV-3 ovarian.
The test system of assay [9] is MDA-N.

SMILES strings stand for the structures. “And” between values parts separate entries of the source, which are not always exact repeats. Identical values can stand only once.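 Step 1: Grow cells in 96-well plates. Step 2: Expose to compound for 48 hours at 5 concentrations. Step 3: Interpolate endpoints linearly; if unreached, use highest concentration. At the GI50, growth is halved. TGI: total growth inhibition.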

For `COc1ccc(NC2=C(Sc3nc(C)cc(C)n3)C(=O)N(Cc3ccccc3)C2=O)cc1Cl`, the GI50 in assay [1] is over 160 µM; in assay [2] it was 140 µM; in [3], 13.9 µM; in [4] it was 108 µM; in assay [5], 127 µM; in assay [6] it was over 160 µM. Moreover, the GI50 in assay [7] and in [8] was over 160 µM each time. The TGI in assay [1], in [2], in assay [3], in assay [4], in assay [5] and in assay [6] was over 160 µM in each case. In addition, the TGI in assay [7] and in assay [8] was over 160 µM in each case.
In the case of `COc1cc(N2CCC(N(C)C)CC2)ccc1Nc1ncc(Cl)c(Nc2ccccc2P(C)(C)=O)n1`, the GI50 in assay [1] was 4.01 µM and 0.61 µM; in assay [2] it was 1.25 µM and 0.168 µM; in assay [4], 0.687 µM and 0.181 µM; in assay [5] it was 1.22 µM and 0.333 µM; in [6], 2.25 µM and 1.07 µM; in assay [7] it was 3.24 µM and 0.326 µM. The GI50 in assay [8] is 0.517 µM and 0.43 µM. The TGI was 30 µM and > 8.47 µM in [1]; 11.6 µM and > 5.33 µM in assay [2]; over 100 µM in [3]; over 100 µM in assay [4]; 7.37 µM and > 5.39 µM in [5]; 98.7 µM and > 10 µM in assay [6]. Besides, the TGI in assay [7] is 10.5 µM and > 4.56 µM; in assay [8], 2.01 µM and > 4.16 µM.
Consider `CCCCCCN1C(=O)/C(=c2\sc3n(c2=O)C2C(NN=3)N(CC)C(=O)N2CC)c2ccccc21` (stereo not drawn), for which the GI50 in [1] was 3.09 µM; in assay [2], 1.96 µM; in [3], 2.5 µM; in assay [4], 1.63 µM; in [5] it was 1.77 µM; in assay [6] it was 3.03 µM. The GI50 in [7] was 1.82 µM; in assay [8], 2.67 µM. For the same molecule, the TGI is over 50 µM in [1]; 43.9 µM in assay [2]; over 50 µM in assay [3]; over 50 µM in assay [4]; 10.4 µM in assay [5]; over 50 µM in assay [6]. In addition, the TGI in assay [7] and in assay [8] was over 50 µM each time.
In the case of `C[C@]12CC[C@H]3[C@@H](CCC4=CC(=O)CC[C@@H]43)[C@@H]1CC[C@@H]2OC1(O)C(=O)c2ccccc2C1=O`, the TGI in [1] was over 100 µM; in assay [3] it was over 100 µM; in assay [4] it was over 100 µM; in [9], 35.1 µM; in assay [5] it was over 100 µM; in [6], over 100 µM. In addition, the TGI in [7] and in assay [8] was over 100 µM each time.
As for `CC1(C)CCSC(/C=C/c2ccccc2)=N1`, the TGI in assay [1] was 27 µM; in assay [2], over 100 µM; in assay [3], over 100 µM; in assay [4], 37.8 µM; in [9], 24.8 µM; in assay [5], 30.6 µM. For the same molecule, the TGI was 46 µM in assay [6], 32.3 µM in assay [7] and over 100 µM in assay [8].
As for `Cc1cccc2c3c(sc12)C(c1ccc(Cl)cc1)C(C#N)=C(/N=C/c1ccc(Cl)cc1)O3` (stereo not drawn), the GI50 in [1] was over 100 µM; in assay [2], 0.325 µM; in [3] it was 0.381 µM; in assay [4], 0.413 µM; in assay [5], 0.754 µM; in assay [6] it was 0.457 µM. For the same molecule, the GI50 in assay [7] was 0.265 µM; in [8], 3.62 µM. For the same molecule, the TGI in assay [1] is over 100 µM; in assay [2] it was 2.54 µM; in assay [3], over 63.7 µM; in [4], over 100 µM; in assay [5], 20.6 µM; in assay [6] it was 24.3 µM. Also, the TGI in [7] was determined as 20.7 µM; in [8], 40 µM.
With `S=C(Nc1ccccc1)c1ccccn1`, the GI50 in [1] is over 100 µM; in assay [2] it was 31.3 µM; in [3] it was 3.97 µM; in assay [4], 42.4 µM; in assay [5], 51.2 µM; in assay [6], over 100 µM. Also, the GI50 in [7] is 40.3 µM; in assay [8] it was over 100 µM. The TGI in assay [1] is over 100 µM; in assay [2], over 100 µM; in assay [3] it was 40.4 µM; in [4], over 100 µM; in [5] it was over 100 µM; in [6], over 100 µM. Further, the TGI in assay [7] and in assay [8] was over 100 µM each time.
Regarding `COc1ccc(/C=C/C(=O)c2ccc(Nc3ncnc4ccccc34)cc2)cc1OC`, the GI50 is 20.3 µM in [1]; 20.7 µM in assay [2]; 2.55 µM in assay [3]; 20.7 µM in assay [4]; 19.8 µM in assay [5]; 11.5 µM in [6]. Also, the GI50 was 16.8 µM in assay [7] and 4.23 µM in assay [8]. Besides, the TGI is over 100 µM in [1]; over 100 µM in assay [2]; 7.01 µM in [3]; over 100 µM in assay [4]; over 100 µM in [5]; over 100 µM in assay [6]. In addition, the TGI was over 100 µM in [7] and 35.5 µM in assay [8].
Take `C#Cc1cccc(NC(=O)Nc2ccc(NC(=O)CCl)cc2)c1`: the GI50 in assay [1] is over 82.5 µM; in assay [2], 14.9 µM; in assay [3] it was 9.55 µM; in assay [4], 12.1 µM; in assay [5], 14.8 µM; in assay [6], 15.7 µM. The GI50 is 15.7 µM in assay [7] and 15.5 µM in [8]. The TGI in [1] is over 82.5 µM; in [2] it was 33.4 µM; in [3], 26.9 µM; in assay [4], 25.5 µM; in [5], 34 µM; in [6] it was 40.8 µM. The values for the TGI in assay [7] and in assay [8] were 36.2 µM and 33 µM, respectively.
